{
  "source": "paper PMC8231556",
  "about": "“Inhibiting Endothelial Cell Function in Normal and Tumor Angiogenesis Using BMP Type I Receptor Macrocyclic Kinase Inhibitors” (Cancers, 2021)",
  "key": {"[1]": {"tested_on": "TGF-β2-induced SMAD2 phosphorylation", "assay": "Western blot of TGF-β2-induced SMAD2 phosphorylation in EA.hy926 cells", "type": "cell-based, human", "conditions": "TGF-β2 1 ng/mL", "method": "(§1) EA.hy926 cells or HUVECs were seeded in 6-well plates and starved in a serum-free medium for 4 h after reaching 80% confluence. The compounds were added 30 min prior to stimulation with the corresponding ligands. EA.hy926 cells were incubated with BMP9 (1 ng/mL), BMP6 (50 ng/mL), TGF-β2 (1 ng/mL), or vehicle control for 1 h. For HUVECs, after 4 h starvation, the cells were pre-treated with or without the indicated compounds for 30 min and subsequently stimulated with VEGF (40 ng/mL) for 10 min. The cells were harvested and lysed in radioimmunoprecipitation assay (RIPA) lysis buffer containing 1× complete protease inhibitor cocktail (11836153001, Roche, Basel, Switzerland). The protein concentration was determined using the DC protein assay kit (5000111, Bio-Rad). After adding loading buffer, the samples were boiled and proteins separated by sodium dodecyl sulfate polyacrylamide gel electrophoresis (SDS-PAGE). Proteins in the gel were transferred to polyvinylidene difluoride (PVDF) membranes (IPVH00010, Merck Millipore, Burlington, MA, USA) and immunoblotted with 1000 times diluted primary antibodies: phospho-SMAD1/5 (9516 S, Cell Signaling Technology, Leiden, The Netherlands), phospho-SMAD2 (pSMAD2, home-made), SMAD1 (6944 S, Cell Signaling Technology), SMAD2 (3103 S, Cell Signaling Technology), phospho-extracellular signal-regulated kinase/mitogen-activated protein kinase (pERK/MAPK, 4370, Cell Signaling Technology), mitogen-activated protein kinase/ERK1/2 (ERK1/2/MAPK, 9102 S, Cell Signaling Techonol), VEGFR (2479, Cell Signaling), pVEGFR (2478, Cell Signaling Technology), α/β-Tubulin (2148, Cell Signaling Technology), glyceraldehyde 3-phosphate dehydrogenase (GAPDH, MAB374, Merck Millipore). Clarity™ enhanced chemiluminescence (ECL) reagent (1705060, Bio-Rad) was used to visualize secondary antibodies conjugated to horseradish peroxidase (HRP). GAPDH or Tubulin was used as protein loading controls. […] The protein bands were quantified using ImageJ (National Institutes of Health, Bethesda, MD, USA)."}, "[2]": {"tested_on": "BMP9-induced BRE-Luc activity", "assay": "BRE-luciferase transcriptional reporter assay, BMP9-stimulated EA.hy926-BRE-Luc cells", "type": "cell-based, human", "conditions": "for BMP9-induced BRE-Luc activity (fold): BMP9 1 ng/mL alone 5.0 fold", "from_the_text": "The BMP responsive element (BRE)-driven transcriptional luciferase reporter, which contains SMAD1/5-SMAD4 responsive elements of the ID1 gene promoter, was used to assess the activation of the BMP/SMAD signaling pathway. A lentiviral vector carrying this reporter construct (pRRL-BRE-Luc) was generated by digesting the MLP-BRE-Luc plasmid with KpnI and SalI and then inserted into the lentivirus vector pRRL-CMV digested with XhoI and KpnI. Lentiviral particles were made using HEK 293 T cells, and EA.hy926 cells were transduced to generate BRE-Luc stably expressing cells, named as EA.hy926-BRE-Luc.\nEA.hy926-BRE-Luc cells were seeded at approximately 5 × 10^5 cells/well in a 24-well plate. Cells were serum-starved overnight by incubating with a serum-free medium. After starvation, the cells were pre-incubated with the compounds for 30 min and subsequently stimulated overnight with ligands (or vehicle control). Thereafter, the cells were lysed, and luciferase activity was measured with the firefly luciferase assay System kit (E1501, Promega Corporation, Madison, WI, USA) using a PerkinElmer luminometer. The firefly luciferase activity was normalized to protein content, which was determined using the DC protein assay kit (5000111, Bio-Rad, Hercules, CA, USA)."}, "[3]": {"tested_on": "BMP6-induced SMAD1/5 phosphorylation", "assay": "Western blot of BMP6-induced SMAD1/5 phosphorylation in EA.hy926 cells", "type": "cell-based, human", "conditions": "BMP6 50 ng/mL", "method": "EA.hy926 cells or HUVECs were seeded in 6-well plates and starved in a serum-free medium for 4 h after reaching 80% confluence. The compounds were added 30 min prior to stimulation with the corresponding ligands. EA.hy926 cells were incubated with BMP9 (1 ng/mL), BMP6 (50 ng/mL), TGF-β2 (1 ng/mL), or vehicle control for 1 h. For HUVECs, after 4 h starvation, the cells were pre-treated with or without the indicated compounds for 30 min and subsequently stimulated with VEGF (40 ng/mL) for 10 min. The cells were harvested and lysed in radioimmunoprecipitation assay (RIPA) lysis buffer containing 1× complete protease inhibitor cocktail (11836153001, Roche, Basel, Switzerland). The protein concentration was determined using the DC protein assay kit (5000111, Bio-Rad). After adding loading buffer, the samples were boiled and proteins separated by sodium dodecyl sulfate polyacrylamide gel electrophoresis (SDS-PAGE). Proteins in the gel were transferred to polyvinylidene difluoride (PVDF) membranes (IPVH00010, Merck Millipore, Burlington, MA, USA) and immunoblotted with 1000 times diluted primary antibodies: phospho-SMAD1/5 (9516 S, Cell Signaling Technology, Leiden, The Netherlands), phospho-SMAD2 (pSMAD2, home-made), SMAD1 (6944 S, Cell Signaling Technology), SMAD2 (3103 S, Cell Signaling Technology), phospho-extracellular signal-regulated kinase/mitogen-activated protein kinase (pERK/MAPK, 4370, Cell Signaling Technology), mitogen-activated protein kinase/ERK1/2 (ERK1/2/MAPK, 9102 S, Cell Signaling Techonol), VEGFR (2479, Cell Signaling), pVEGFR (2478, Cell Signaling Technology), α/β-Tubulin (2148, Cell Signaling Technology), glyceraldehyde 3-phosphate dehydrogenase (GAPDH, MAB374, Merck Millipore). Clarity™ enhanced chemiluminescence (ECL) reagent (1705060, Bio-Rad) was used to visualize secondary antibodies conjugated to horseradish peroxidase (HRP). GAPDH or Tubulin was used as protein loading controls. All the experiments were repeated at least three times, and representative experiments are shown. The protein bands were quantified using ImageJ (National Institutes of Health, Bethesda, MD, USA)."}, "[4]": {"tested_on": "constitutively active ALK1 (caALK1)", "assay": "caALK1-induced BRE-Luc reporter activity in C2C12 cells", "type": "cell-based", "conditions": "for inhibition of caALK1 compared to caALK2 (BRE-Luc): C2C12 cells", "from_the_text": "To further investigate and validate the selective inhibitory effects of OD16 and OD29 toward BMP9/ALK1 and BMP6/ALK2 signaling, we transfected C2C12 myoblast cells with constitutively active mutant ALK1 and ALK2 (caALK1 and caALK2). These constitutively active receptors signal in the absence of exogenous ligands and allow for a more direct assessment of inhibitory effects that are elicited by kinase receptor inhibitors. […]\nFigure S4. OD29 and OD16 are two small molecule BMP type I receptors kinase inhibitors in C2C12 cells. Effects of vehicle control (DMSO), LDN−193189, OD16 or OD29 on BRE transcriptional luciferase reporter activity induced by the ectopic expression of caALK1 (A) or caALK2 (B) in C2C12 cells. Cells were incubated with the inhibitors in three different con-centrations (0.1 μM, 0.5 μM or 1 μM) for 16 hours. Representative results from three biologically independent experiments are shown as mean ± SD. NS, not significant; * p < 0.05, ** p < 0.005; *** p < 0.001."}, "[5]": {"tested_on": "BMP9-induced SMAD1/5 phosphorylation", "assay": "Western blot of BMP9-induced SMAD1/5 phosphorylation in EA.hy926 cells", "type": "cell-based", "conditions": "Homo sapiens, EA.hy 926, BMP9 1 ng/mL, 1 h, read-out: IC50 on BMP9-induced pSMAD1/5 response", "method": "as §1"}, "[6]": {"tested_on": "BMP9-induced ID1, ID3, and SMAD6 mRNA expression", "assay": "RT-qPCR of BMP9-induced ID1, ID3 and SMAD6 mRNA in EA.hy926 cells", "type": "cell-based, human", "conditions": "0.5 µM compound, BMP9 1 ng/mL", "method": "EA.hy926 cells or HUVECs were seeded in 6-well plates and cultured until they reached 80% confluence. The medium was replaced with a serum-free medium for a 4 h starvation. For EA.hy926 cells, the compounds were added at a final concentration of 0.5 μM for 30 min, followed by BMP9 (1 ng/mL), TGF-β2 (1 ng/mL), or vehicle control addition and cultured for another 3 h before the cells were harvested. To investigate VEGF-induced cellular response, HUVECs were exposed to VEGF (40 ng/mL) for 1 h after 30 min pre-treatment with the compounds.\nAfter samples were collected, total RNA was isolated and purified using the NucleoSpin RNA II kit (740955, BIOKE, Leiden, the Netherlands), following the manufacturer’s instructions. Then, the mRNA was used as a template to synthesize cDNA by performing reverse transcription with the RevertAid First Strand cDNA Synthesis Kit (K1621, ThermoFisher Scientific). Gene expression levels were determined by RT-qPCR analysis using the GoTaq qPCR Master Mix (A6001, Promega, Madison, WI, USA) and normalized to GAPDH expression. All the experiments were repeated three times, and results from three biologically independent experiments are shown."}},
  "data": [
    {"smiles": "c1ccc2c(-c3cnn4cc(-c5ccc(N6CCNCC6)cc5)cnc34)ccnc2c1", "note": "[LDN-193189, reference compound]", "values": [
      {"measurement": "effect on TGF-β2-induced SMAD2 phosphorylation", "setting": "[1]; 0.1 µM compound", "value": "effectively attenuated"},
      {"measurement": "effect on BMP9-induced BRE activity", "setting": "[2]; 0.5 μM compound", "value": "significantly inhibited"},
      {"measurement": "effect on BMP9-induced BRE activity", "setting": "[2]; 1 μM compound", "value": "nearly decreased to basal levels"},
      {"measurement": "effect on BMP6-induced SMAD1/5 phosphorylation", "setting": "[3]; 0.1 µM compound", "value": "efficiently inhibited"},
      {"measurement": "inhibition of caALK1 compared to caALK2 (BRE-Luc)", "setting": "[4]", "value": "No difference in inhibition between ALK1 and ALK2"},
      {"measurement": "effect on caALK1-induced BRE-Luc reporter activity", "setting": "[4]; C2C12 cells, 0.1, 0.5 or 1 μM, 16 hours", "value": "in a dose-dependent manner attenuated"},
      {"measurement": "IC50", "setting": "[5]", "value": 110, "unit": "nM"},
      {"measurement": "effect on BMP9-induced ID1, ID3 and SMAD6 mRNA expression", "setting": "[6]", "value": "inhibited"}
    ]},
    {"smiles": "CN1CCC(=O)NCCNc2ccn3ncc(c3n2)-c2cccc(c2)C1", "note": "[OD29]", "values": [
      {"measurement": "effect on TGF-β2-induced SMAD2 phosphorylation", "setting": "[1]; dose range", "value": "nearly no inhibitory effect"},
      {"measurement": "BMP9-induced BRE-Luc activity (fold)", "setting": "[2]; 0.5 μM compound", "value": 3.1, "unit": "fold"},
      {"measurement": "BMP9-induced BRE-Luc activity (fold)", "setting": "[2]; 1 μM compound", "value": 0.9, "unit": "fold"},
      {"measurement": "effect on BMP6-induced SMAD1/5 phosphorylation", "setting": "[3]; 0.1 µM compound", "value": "failed to antagonize"},
      {"measurement": "effect on BMP6-induced SMAD1/5 phosphorylation", "setting": "[3]; 1 µM compound", "value": "very weak inhibitory effect"},
      {"measurement": "inhibition of caALK1 compared to caALK2 (BRE-Luc)", "setting": "[4]", "value": "higher sensitivity and more inhibitory potential against caALK1 compared to caALK2"},
      {"measurement": "IC50", "setting": "[5]", "value": 430, "unit": "nM"},
      {"measurement": "effect on BMP9-induced ID1, ID3 and SMAD6 mRNA expression", "setting": "[6]", "value": "inhibited"}
    ]},
    {"smiles": "CN1CCc2cccc(c2)Nc2nccc(n2)N2CCCc3cc(ccc32)C1", "note": "[OD16]", "values": [
      {"measurement": "effect on TGF-β2-induced SMAD2 phosphorylation", "setting": "[1]; dose range", "value": "in a dose-dependent manner but far less efficiently than LDN-193189"},
      {"measurement": "BMP9-induced BRE-Luc activity (fold)", "setting": "[2]; 0.1 μM compound", "value": 2.1, "unit": "fold"},
      {"measurement": "effect on BMP9-induced BRE activity", "setting": "[2]; 1 μM compound", "value": "nearly completely inhibited"},
      {"measurement": "effect on BMP6-induced SMAD1/5 phosphorylation", "setting": "[3]; 0.1 µM compound", "value": "efficiently inhibited"},
      {"measurement": "inhibition of caALK1 compared to caALK2 (BRE-Luc)", "setting": "[4]", "value": "higher sensitivity and more inhibitory potential against caALK1 compared to caALK2"},
      {"measurement": "IC50", "setting": "[5]", "value": 80, "unit": "nM"},
      {"measurement": "effect on BMP9-induced ID1, ID3 and SMAD6 mRNA expression", "setting": "[6]", "value": "inhibited"}
    ]}
  ]
}
